Measured values taken from patent EP1598418A1, “STABILISED COMPOSITION FOR FLUORIMETRIC, COLORIMETRIC OR CHEMOLUMINESCENT ASSAYS, KITS CONTAINING SAME AND PRODUCTION METHOD THEREOF” (BIOTOOLS BIOTECHNOLOGICAL & MEDICAL LABORATORIES, S.A., priority 2003, dated 2004).

Legend:
Conditions in all cases: conserved at T 4 °C, vs fresh mixture
FRET probes = experiment: Real-time amplification with desiccated, stabilised reaction mixture with FRET probes after storage (Example 1); format: biochemical, P. falciparum
TaqMan probes = experiment: Real-time amplification with desiccated, stabilised reaction mixture with TaqMan probes after storage (Example 2); format: biochemical, P. falciparum
[1] = tested on: Molecular Beacon (MB) probe; experiment: Real-time amplification with desiccated, stabilised reaction mixture with Molecular Beacon probe after storage (Example 3); format: biochemical, P. falciparum
[2] = tested on: DTCS Quick Start Master Mix; experiment: Sequencing reaction with desiccated, stabilised mixture with fluorescent terminators after storage (Example 6); format: biochemical, human papillomavirus
Experimental: To test the possibility of gelling reaction mixtures for sequencing nucleic acids the CEQ 200 Dye Terminator Cycle Sequencing (DTCS) Quick Start Kit (Beckman Coulter) was employed, which uses a PCR sequencing system in a single tube by incorporating four different fluorescent terminators. The sequencing reactions were later analysed in a CEQ 2000 XL DNA Analysis System (Beckman Coulter) capillary electrophoresis automatic sequencing system.
Reaction mixtures were prepared containing 4 microlitres of DTCS Quick Start Master Mix, 1 microlitre of universal primer M13-17 and the suitable volume of each stabilising mixture shown in Table 1.
In parallel, in order to check the evolution of the activity of the desiccated and stabilised tubes, the same plasmid was sequenced using a fresh sequencing mixture in standard conditions. Finally, the sequencing reactions were analysed in the CEQ 200XL system following the supplier's instructions.

[3] = tested on: oligonucleotides chemically modified by including biotin and/or digoxygenin groups; experiment: Amplification with desiccated biotin/digoxygenin oligonucleotides and colorimetric ELISA plate assay (Example 7); format: biochemical, oncogenic HPV
Experimental: To do so, 4 oligonucleotides were designed that hybridised with the genome of region E6-E7 of oncogenic HPV species.
To do so, an ELISA microplate with a high-binding capacity to streptoavidin (Biospa) was activated following a standard fixing protocol. Then, after blocking the plate by incubation with gelatine, the amplified products of the stabilising mixtures 1, 2 and 3 described in Example 7.A were analysed by a colorimetry assay according to the following experimental process: • A.- Amplification products using an onligonucleotide marked with digoxygenin (mixture 1 in Example 7.A). The biotinated probe A11 was fixed to the plate and the amplified product was hybridised. […] The amplification product was fixed to the plate with the first biotinilate and then hybridised with the first A12 marked with digoxygenin.

[4] = tested on: streptoavidin conjugated with HRP (Str-HRP) and anti-digoxygenin conjugated with alkaline phospatase (anti-DIG-AP); experiment: Colorimetric ELISA plate activity test of desiccated, stabilised conjugates (Example 8); format: biochemical, HPV 16
Experimental: In 0.2 ml amplification tubes were added 100 microlitres of a 1/250 dilution in a blocking solution of the conjugate Str-HRP (Biospa). In parallel, 0.2 ml phials were prepared in which 100 microlitres were added of a 1/250 dilution in a blocking solution of anti-DIG-AP (Sigma).
For the activity assay of the conjugate anti-DIG-AP an ELISA plate was used in which the dimples had been previously coated with streptoavidin. For the activity assay of conjugate Str-HRP a plate was used instead with dimples previously coated with anti-DIG antibodies. The amplified products were incubated in each plate to allow the immobilisation of the amplicons in the plate.

antidigoxygenin antibody = experiment: Colorimetry assay of stabilised protein immobilised in ELISA microplates (Example 10.2); format: biochemical, HPV
Experimental: To do so each dimple was incubated with 1µg of antidigoxygenin antibody (Roche).
The amplified product was incubated for 30 minutes in the dimples with the antibody immobilised. The amplified products immobilised in the plate by the union of the digoxygenin group of the amplicons and the immobilised anti-digoxygenin group were analysed by a colorimetric assay. […] The colorimetric reaction was finally analysed by measuring absorption at 415 nm.

[5] = tested on: nucleic acids immobilised in modified glasses; experiment: Colorimetric assay of stabilised nucleic acids immobilised in modified glasses (Example 10.3); format: biochemical, HPV 16
Experimental: Approach 1. Stabilisation of supports with previously fixed nucleic acids. HPV specific probes were fixed to glass supports pre-treated with polylysiun, aldehyde, epoxy, superepoxy and silane. To do so, in each support slide 1 microlitre spots were applied of the solution of each oligonucleotide at a concentration of 20 µM in the conditions indicated for each glass format. The slides with the immobilised oligonucleotides were then coated with a thin layer of each of the stabilising mixtures and then desiccated in a vacuum oven at 25°C and 50 mbar pressure.
Approach 2. Fixation to the slides of the nucleic acids pre-mixed with the stabilising mixtures. A mixture was prepared of each of the probes with the suitable volumes of the stabilising mixtures described in Table 1. Then the mixtures of oligonucleotides were applied to the various slides with the fixing conditions indicated for each glass format.
To test the viability of each slide prepared, a colorimetric assay was performed with formation of precipitate products. To do so, the slides were washed for 5 minutes in PBS 1X at room temperature to eliminate the protective layer. Then the slides were incubated in the presence of an amplified and previously denatured HPV 16 product using the probes A11 and A12.

[6] = tested on: Anti-digoxygenin antibodies; experiment: Colorimetric assay of stabilised proteins immobilised in modified glasses (Example 10.4); format: biochemical, P. falciparum
Experimental: To test the possibility of stabilising proteins that have been previously immobilised in pre-treated glass supports, the usual format of microarray systems, two different alternatives were tested as in the previous experiment.
Approach 1. Stabilisation of supports with previously fixed protein. Anti-digoxygenin antibodies were fixed to glass supports pre-treated with aldehyde. To do so, in each support slide 1 microlitre spots were applied of the solution of each protein at a concentration of 30 ng/µl. The slides with the immobilised protein were then coated with a thin layer of each of the stabilising mixtures and then desiccated in a vacuum oven at 25°C and 50 mbar pressure.
Approach 2. Fixation to the slides of the protein pre-mixed with the stabilising mixtures. A mixture was prepared of each of the probes with the suitable volumes of the stabilising mixtures described in Table 1. Then the mixtures of protein were applied to the various slides with the fixing conditions indicated for each glass format.
To test the viability of each slide prepared, a colorimetric assay was performed with formation of precipitate products. To do so, the slides were washed for 5 minutes in PBS 1X at room temperature to eliminate the protective layer.

[7] = tested on: probes marked with biotin or digoxygenin groups; experiment: Synthesis of digoxygenin-marked probes with desiccated mixtures and molecular hybridisation test (Example 9)
[8] = tested on: nucleic acids immobilised in ELISA microplates; experiment: Amplification and colorimetric detection with stabilised nucleic acids immobilised in ELISA microplates (Example 10.1)
Scorpion probes = experiment: Real-time amplification with desiccated, stabilised reaction mixture with Scorpion probes after storage (Example 4); format: biochemical, M. tuberculosis
[9] = tested on: reaction mixture with SYBR Green; experiment: Real-time amplification with desiccated, stabilised reaction mixture with SYBR Green after storage (Example 5); format: biochemical, oncogenic papillomaviruses
Experimental: To test the efficiency of intercalated fluorophores such as SYBR Green included in desiccated and stabilised reaction mixtures, reaction mixtures were prepared for amplifying a 250 bp fragment corresponding to region E6-E7 of oncogenic papillomaviruses, using the same reagents as described in Example 1. In this case the unit "DNA Engine OPTICON™ 2 System" (MJ Research) was used. […] Also to each phial was added […] of SYBR Green 1 (Molecular probes).
Various tubes were prepared as described above, adding to each the suitable volume of each stabilising mixture shown in Table 1.
In parallel, in order to check the evolution of the activity of the desiccated tubes, DNA samples were amplified using a fresh mixture in the same amplification conditions.
The result of the amplification reaction was analysed in every case by inspecting the fluorescence curve and determining the crossing point, following the instructions of the equipment software, for each reaction tube both fresh and desiccated and stabilised. […] The samples of patients infected with oncogenic HPV gave positive results in every case, while patients infected with non-oncogenic HPV, or not infected with HPV, gave negative results in every case.

SMILES	activity of stabilising mixtures (FRET probes)	activity of stabilising mixtures (TaqMan probes)	activity of stabilising mixtures [1]	activity of stabilising mixtures [2]	activity of stabilising mixtures [3]	activity of stabilising mixtures [4]	activity of stabilising mixtures (antidigoxygenin antibody)	activity of stabilising mixtures [5]	activity of stabilising mixtures [6]	activity of stabilising mixtures [7]	activity of stabilising mixtures [8]	activity of stabilising mixtures (Scorpion probes)	activity of stabilising mixtures [9]
OCC(O)CO [Glycerol]	++ (++, positive with 50-90% of the activity of the fresh mixture)	++ (++, positive with 50-90% of the activity of the fresh mixture)	++ (++, positive with 50-90% of the activity of the fresh mixture)	++ (++, positive with 50-90% of the activity of the fresh mixture)	++ (++, positive with 50-90% of the activity of the fresh mixture)	++ (++, positive with 50-90% of the activity of the fresh mixture)	++ (++, positive with 50-90% of the activity of the fresh mixture)	++ (++, positive with 50-90% of the activity of the fresh mixture)	++ (++, positive with 50-90% of the activity of the fresh mixture)	++ (++, positive with 50-90% of the activity of the fresh mixture)	++ (++, positive with 50-90% of the activity of the fresh mixture)	–	–
NCCCC[C@H](N)C(=O)O [Lysine]	+ (+, weak positive, under 50% of the activity of the fresh mixture)	+ (+, weak positive, under 50% of the activity of the fresh mixture)	+ (+, weak positive, under 50% of the activity of the fresh mixture)	+ (+, weak positive, under 50% of the activity of the fresh mixture)	+ (+, weak positive, under 50% of the activity of the fresh mixture)	+ (+, weak positive, under 50% of the activity of the fresh mixture)	+ (+, weak positive, under 50% of the activity of the fresh mixture)	+ (+, weak positive, under 50% of the activity of the fresh mixture)	+ (+, weak positive, under 50% of the activity of the fresh mixture)	+ (+, weak positive, under 50% of the activity of the fresh mixture)	+ (+, weak positive, under 50% of the activity of the fresh mixture)	+ (+, weak positive, under 50% of the activity of the fresh mixture)	+ (+, weak positive, under 50% of the activity of the fresh mixture)
OC[C@H]1O[C@@](CO)(O[C@H]2O[C@H](CO)[C@@H](O)[C@H](O)[C@H]2O)[C@@H](O[C@H]2O[C@H](CO)[C@@H](O)[C@H](O)[C@H]2O)[C@@H]1O [Melezitose]	+ (+, weak positive, under 50% of the activity of the fresh mixture)	+ (+, weak positive, under 50% of the activity of the fresh mixture)	+ (+, weak positive, under 50% of the activity of the fresh mixture)	+ (+, weak positive, under 50% of the activity of the fresh mixture)	+ (+, weak positive, under 50% of the activity of the fresh mixture)	+ (+, weak positive, under 50% of the activity of the fresh mixture)	+ (+, weak positive, under 50% of the activity of the fresh mixture)	+ (+, weak positive, under 50% of the activity of the fresh mixture)	+ (+, weak positive, under 50% of the activity of the fresh mixture)	+ (+, weak positive, under 50% of the activity of the fresh mixture)	+ (+, weak positive, under 50% of the activity of the fresh mixture)	+ (+, weak positive, under 50% of the activity of the fresh mixture)	+ (+, weak positive, under 50% of the activity of the fresh mixture)
OC[C@@H](O)[C@@H](O)[C@H](O)[C@@H](O)CO [Sorbitol]	++ (++, positive with 50-90% of the activity of the fresh mixture)	++ (++, positive with 50-90% of the activity of the fresh mixture)	++ (++, positive with 50-90% of the activity of the fresh mixture)	++ (++, positive with 50-90% of the activity of the fresh mixture)	++ (++, positive with 50-90% of the activity of the fresh mixture)	++ (++, positive with 50-90% of the activity of the fresh mixture)	++ (++, positive with 50-90% of the activity of the fresh mixture)	++ (++, positive with 50-90% of the activity of the fresh mixture)	++ (++, positive with 50-90% of the activity of the fresh mixture)	++ (++, positive with 50-90% of the activity of the fresh mixture)	++ (++, positive with 50-90% of the activity of the fresh mixture)	–	–
